Assay results from PubChem BioAssay (NCI).
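Protocol summary: plate cells (96-well), add compound at 5 concentrations, incubate 48 h, interpolate endpoints linearly. The concentration for full growth arrest is given as TGI.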 *1 amine or outer side, *2 acyl side, *3 side chain or, on linkers, in order; H or OH if unused. Where a SMILES comes first, the peptide text is derived from it. [ ]: non-standard residue; d: D form. X33 = C=CCC(O[*:1])C(=O)[*:2]; NMeV = CN[CH](C(=O)O)C(C)C; NMeA = CN[CH](C)C(=O)O; βAla = NCCC(=O)O

Assays:
Test in all cases: growth of human tumour cells (NCI), 48 h
U251 CNS = tested on: U251 CNS
SW-620 colon = tested on: SW-620 colon
OVCAR-8 ovarian = tested on: OVCAR-8 ovarian
SF-268 CNS = tested on: SF-268 CNS
NCI-H23 lung = tested on: NCI-H23 lung
LOX IMVI melanoma = tested on: LOX IMVI melanoma
SF-539 CNS = tested on: SF-539 CNS
SN12C renal = tested on: SN12C renal
SK-MEL-2 melanoma = tested on: SK-MEL-2 melanoma
COLO 205 colon = tested on: COLO 205 colon
M14 melanoma = tested on: M14 melanoma

Structure (SMILES) | TGI (U251 CNS) | TGI (SW-620 colon) | TGI (OVCAR-8 ovarian) | TGI (SF-268 CNS) | TGI (NCI-H23 lung) | TGI (LOX IMVI melanoma) | TGI (SF-539 CNS) | TGI (SN12C renal) | TGI (SK-MEL-2 melanoma) | TGI (COLO 205 colon) | TGI (M14 melanoma)
O=C(NN1C(=O)CSC1c1ccc(C(F)(F)F)cc1)c1ccncc1 (stereo not drawn) | > 100 µM | > 100 µM | > 100 µM | > 100 µM | > 100 µM | > 100 µM | > 100 µM | > 100 µM | > 100 µM | – | –
C/C(=N\NC(=S)Nc1ccc(C)cc1)c1nc2ncccc2[nH]1 | 15.4 µM | 24 µM | 12.3 µM | 35.7 µM | 19.8 µM | 8.29 µM | 5.71 µM | 30.8 µM | 25.4 µM | 17.6 µM | –
COc1ccc(-c2c3c(nc4nc(SC)nc(SC)c24)CCCC3)cc1OC | > 100 µM | > 100 µM | – | > 100 µM | > 100 µM | > 100 µM | > 100 µM | > 100 µM | > 100 µM | > 100 µM | > 100 µM
Nc1nc(N)c2[nH]cnc2n1 (tested in a mixture with another compound) | > 100 µM | > 100 µM | > 100 µM | > 100 µM | 77.5 µM | > 100 µM | > 100 µM | > 100 µM | 77.5 µM | > 100 µM | 36.2 µM
NC(=S)N/N=C1\c2ccccc2CCC1CCC1(O)CCc2ccccc2C1=O (stereo not drawn) | > 100 µM | > 100 µM | 35.1 µM | > 100 µM | 87 µM | 44.3 µM | 29.5 µM | 39.8 µM | – | 36.7 µM | 38 µM
CCc1nnc(-c2nsc3ccccc23)s1 | > 100 µM | > 100 µM | > 100 µM | > 100 µM | > 100 µM | > 100 µM | > 100 µM | > 100 µM | > 100 µM | > 100 µM | > 100 µM
COc1cc2c(cc1OC)C(C)N(C)c1c-2c(OC(C)=O)cc2cc(OC)c(OC)cc12 (stereo not drawn) | > 68.5 µM | > 78.2 µM | 33.2 µM | > 100 µM | 36.7 µM | 39.8 µM | 40.6 µM | > 46.2 µM | 30.2 µM | 20 µM | 28.2 µM
O=S(=O)(O)c1ccc2c(N=Nc3ccc(F)cc3)c(O)c(S(=O)(=O)O)cc2c1 | > 100 µM | > 100 µM | > 100 µM | > 100 µM | > 100 µM | > 100 µM | – | > 100 µM | > 100 µM | > 100 µM | > 100 µM
C=CCC1OC(=O)CCNC(=O)C(C)N(C)C(=O)C(C(C)C)N(C)C(=O)C(C(C)CC)NC(=O)C2CCCN2C1=O (stereo not drawn) (cyclo([X33]PI[NMeV][NMeA][βAla]); configuration not given here) | > 100 µM | > 100 µM | > 100 µM | > 100 µM | > 100 µM | 5.17 µM | > 100 µM | > 100 µM | > 100 µM | > 100 µM | > 100 µM
